One test deals with T1, purified human HDAC6 (Homo sapiens, UniProt Q9UBN7).
T1 construct: purchased BPS Bioscience 5006
T1 sequence (Q9UBN7 1-1215): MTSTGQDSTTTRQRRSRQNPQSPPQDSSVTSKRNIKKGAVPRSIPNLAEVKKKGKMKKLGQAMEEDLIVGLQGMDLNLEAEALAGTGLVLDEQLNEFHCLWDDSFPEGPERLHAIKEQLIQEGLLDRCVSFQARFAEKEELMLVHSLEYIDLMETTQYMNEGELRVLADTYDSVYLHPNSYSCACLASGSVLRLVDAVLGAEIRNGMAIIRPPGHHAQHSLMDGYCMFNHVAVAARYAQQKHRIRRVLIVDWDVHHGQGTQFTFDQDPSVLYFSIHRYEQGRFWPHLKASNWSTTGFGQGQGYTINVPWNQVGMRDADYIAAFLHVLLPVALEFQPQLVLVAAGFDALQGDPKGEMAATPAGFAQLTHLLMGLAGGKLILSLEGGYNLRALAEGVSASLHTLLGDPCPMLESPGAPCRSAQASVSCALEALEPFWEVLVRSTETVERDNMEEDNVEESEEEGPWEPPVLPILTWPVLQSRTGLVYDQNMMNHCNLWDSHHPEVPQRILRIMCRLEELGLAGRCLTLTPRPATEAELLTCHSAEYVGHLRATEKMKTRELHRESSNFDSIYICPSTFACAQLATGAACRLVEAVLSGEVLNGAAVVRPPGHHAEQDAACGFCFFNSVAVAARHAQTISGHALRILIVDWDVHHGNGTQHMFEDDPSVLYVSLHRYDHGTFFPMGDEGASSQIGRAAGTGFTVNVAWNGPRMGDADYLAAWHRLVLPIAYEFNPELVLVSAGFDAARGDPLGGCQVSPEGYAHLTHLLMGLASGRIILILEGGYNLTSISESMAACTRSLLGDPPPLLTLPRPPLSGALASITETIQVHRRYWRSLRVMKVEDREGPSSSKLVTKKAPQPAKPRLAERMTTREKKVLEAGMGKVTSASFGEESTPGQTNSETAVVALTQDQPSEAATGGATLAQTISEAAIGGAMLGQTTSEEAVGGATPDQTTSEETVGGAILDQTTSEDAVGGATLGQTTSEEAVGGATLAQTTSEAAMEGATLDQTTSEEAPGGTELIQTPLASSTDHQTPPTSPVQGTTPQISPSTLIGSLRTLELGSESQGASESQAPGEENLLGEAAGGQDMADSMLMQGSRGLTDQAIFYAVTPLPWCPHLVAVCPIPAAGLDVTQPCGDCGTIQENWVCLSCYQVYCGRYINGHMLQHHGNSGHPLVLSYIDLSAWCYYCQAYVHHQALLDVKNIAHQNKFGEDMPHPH
The experiment in a line: HDAC6 Enzyme Assay. Format: biochemical. The note with it: compound concentration 0.37 μM, read-out: Percent Inhibition. The method, boiled down:
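Purified human HDAC6 incubated 1 h at 30° C with Ac-Arg-Gly-Lys(Ac)-AMC peptide plus compound or DMSO; stopped with trichostatin A. Deacetylated product trypsin-digested, released AMC read by fluorescence (Ex 340/Em 460 nm). Percent inhibition at one concentration or IC50 from curves relative to DMSO controls.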
Usually inhibition stands for the relative decrease from the control value, in per cent. Consider `O=C(NO)c1ccc2ncn(Cc3cccc(S(=O)(=O)c4ccccc4)c3)c(=O)c2c1` [Compound I-142, N-hydroxy-4-oxo-3-[3-(phenylsulfonyl)benzyl]-3,4-dihydroquinazoline-6-carboxamide], for which the inhibition at 0.37 µM is 97.4%.
The same measure, in the same setting: the result for `COc1ccc(-c2cccc(Cn3cnc4ccc(C(=O)NO)cc4c3=O)c2)cn1` [Compound I-143, N-hydroxy-3-[3-(6-methoxypyridin-3-yl)benzyl]-4-oxo-3,4-dihydroquinazoline-6-carboxamide] reads 96.6%; that for `O=C(NO)c1ccc2ccn(-c3ccccc3)c(=O)c2c1` [Compound I-154, N-hydroxy-1-oxo-2-phenyl-1,2-dihydroisoquinoline-7-carboxamide], 93.9%; that for `Cn1c(-c2nc3cc(C(=O)NO)ccc3c(=O)n2Cc2ccc(C(F)(F)F)cc2)cc2ccccc21` [Compound I-166, N-hydroxy-2-(1-methyl-1H-indol-2-yl)-4-oxo-3-[4-(trifluoromethyl)benzyl]-3,4-dihydroquinazoline-7-carboxamide], 78.8%.

The test is the same for the next values; noted with them: compound concentration 0.412 μM, read-out: Percent Inhibition.
In the case of `Cn1c(NCc2ccc(Cl)cc2)nc2cc(C(=O)NO)ccc2c1=O` [Compound I-139, 2-[(4-chlorobenzyl)amino]-N-hydroxy-3-methyl-4-oxo-3,4-dihydroquinazoline-7-carboxamide], the inhibition at 0.412 µM came to 78.5%.
With `COc1ccc(CCCn2ccc3ccc(C(=O)NO)cc3c2=O)cc1` [Compound I-140, N-hydroxy-2-[3-(4-methoxyphenyl)propyl]-1-oxo-1,2-dihydroisoquinoline-7-carboxamide], the inhibition at 0.412 µM was determined as 96.5%.
For the compound `CC(C)C(Cn1ccc2ccc(C(=O)NO)cc2c1=O)c1ccccc1` (stereo not shown) [Compound I-141, N-hydroxy-2-(3-methyl-2-phenylbutyl)-1-oxo-1,2-dihydroisoquinoline-7-carboxamide], the inhibition at 0.412 µM turned out to be 90.5%.
Still for that read-out and setting: under `O=C(NO)c1ccc2c(=O)[nH]c(COc3ccccc3Cl)nc2c1` [Compound I-144, 2-[(2-chlorophenoxy)methyl]-N-hydroxy-4-oxo-3,4-dihydroquinazoline-7-carboxamide] stands 81.2%; under `O=C(NO)c1ccc2c(=O)[nH]c(COc3cc(Cl)cc(Cl)c3)nc2c1` [Compound I-145, 2-[(3,5-dichlorophenoxy)methyl]-N-hydroxy-4-oxo-3,4-dihydroquinazoline-7-carboxamide], 76.7%.
Same read-out and setting: the result for `O=C(NO)c1ccc2c(=O)[nH]c(CNC3CCNCC3)nc2c1` [Compound I-146, N-hydroxy-4-oxo-2-[(piperidin-4-ylamino)methyl]-3,4-dihydroquinazoline-7-carboxamide] reads 65.7%; that for `O=C(NO)c1ccc2ncn(Cc3ccc(C(F)(F)F)cc3C(F)(F)F)c(=O)c2c1` [Compound I-147, 3-[2,4-bis(trifluoromethyl)benzyl]-N-hydroxy-4-oxo-3,4-dihydroquinazoline-6-carboxamide], 93.2%; that for `Cc1cc(Cn2ccc3ccc(C(=O)NO)cc3c2=O)no1` [Compound I-148, N-hydroxy-2-[(5-methylisoxazol-3-yl)methyl]-1-oxo-1,2-dihydroisoquinoline-7-carboxamide], 91.2%.
With `Cc1ccccc1OCCn1ccc2ccc(C(=O)NO)cc2c1=O` [Compound I-149, N-hydroxy-2-[2-(2-methylphenoxy)ethyl]-1-oxo-1,2-dihydroisoquinoline-7-carboxamide], the inhibition at 0.412 µM was 97.3%.
Same read-out and setting: under `O=C(NO)c1ccc2c(=O)n(Cc3ccc(C(F)(F)F)cc3)c(C3CCCCC3)nc2c1` [Compound I-150, 2-cyclohexyl-N-hydroxy-4-oxo-3-[4-(trifluoromethyl)benzyl]-3,4-dihydroquinazoline-7-carboxamide] stands 30.1%; under `COc1ccc2cc(OCCCn3ccc4ccc(C(=O)NO)cc4c3=O)ccc2c1` [Compound I-151, N-hydroxy-2-{3-[(6-methoxy-2-naphthyl)oxy]propyl}-1-oxo-1,2-dihydroisoquinoline-7-carboxamide], 96.2%.
For the compound `O=C(NO)c1ccc2ccn(CCc3c[nH]c4ccccc34)c(=O)c2c1` [Compound I-152, N-hydroxy-2-[2-(1H-indol-3-yl)ethyl]-1-oxo-1,2-dihydroisoquinoline-7-carboxamide], the inhibition at 0.412 µM was 96%.
The same measure, in the same setting: the result for `O=C(NO)c1ccc2ccn(CCCC3CCCCC3)c(=O)c2c1` [Compound I-153, 2-(3-cyclohexylpropyl)-N-hydroxy-1-oxo-1,2-dihydroisoquinoline-7-carboxamide] reads 89.9%; that for `O=C(NO)c1ccc2c(=O)[nH]c(=O)[nH]c2c1` [Compound I-155, N-hydroxy-2,4-dioxo-1,2,3,4-tetrahydroquinazoline-7-carboxamide], 19.6%; that for `Cn1cnc2ccc(C(=O)NO)cc2c1=O` [Compound I-156, N-hydroxy-3-methyl-4-oxo-3,4-dihydroquinazoline-6-carboxamide], 55.7%.
Still for that read-out and setting: the result for `Cc1ccccc1Cn1ccc2ccc(C(=O)NO)cc2c1=O` [Compound I-157, N-hydroxy-2-(2-methylbenzyl)-1-oxo-1,2-dihydroisoquinoline-7-carboxamide] reads 94.8%; that for `O=C(NO)c1ccc2ccn(CCO)c(=O)c2c1` [Compound I-158, N-hydroxy-2-(2-hydroxyethyl)-1-oxo-1,2-dihydroisoquinoline-7-carboxamide], 72.5%.
As for `CCN(CC)c1cccc(OCCn2ccc3ccc(C(=O)NO)cc3c2=O)c1` [Compound I-159, 2-{2-[3-(diethylamino)phenoxy]ethyl}-N-hydroxy-1-oxo-1,2-dihydroisoquinoline-7-carboxamide], the inhibition at 0.412 µM is 91.3%.
As for `O=C(NO)c1ccc2ccn(CCCOc3ccccc3-c3csnn3)c(=O)c2c1` [Compound I-160, N-hydroxy-1-oxo-2-{3-[2-(1,2,3-thiadiazol-4-yl)phenoxy]propyl}-1,2-dihydroisoquinoline-7-carboxamide], the inhibition at 0.412 µM came to 87.4%.
Still for that read-out and setting: under `O=C(NO)c1ccc2ccn(CCOc3ccc(C45CC6CC(CC(C6)C4)C5)cc3)c(=O)c2c1` [Compound I-161, 2-(2-{4-[1-adamantyl]phenoxy}ethyl)-N-hydroxy-1-oxo-1,2-dihydroisoquinoline-7-carboxamide] stands 67%.
Still for that read-out and setting: the result for `O=C(NO)c1ccc2ccn(Cc3ccccc3Cl)c(=O)c2c1` [Compound I-162, 2-(2-chlorobenzyl)-N-hydroxy-1-oxo-1,2-dihydroisoquinoline-7-carboxamide] reads 94.2%.
With `O=C(NO)c1ccc2ccn(CCCOCc3ccccc3)c(=O)c2c1` [Compound I-163, 2-[3-(benzyloxy)propyl]-N-hydroxy-1-oxo-1,2-dihydroisoquinoline-7-carboxamide], the inhibition at 0.412 µM was 92.5%.
As to `O=C(NO)c1ccc2ncn(Cc3csc4ccc(Cl)cc34)c(=O)c2c1` [Compound I-164, 3-[(5-chloro-1-benzothien-3-yl)methyl]-N-hydroxy-4-oxo-3,4-dihydroquinazoline-6-carboxamide], the inhibition at 0.412 µM was 94.1%.
Take `Cn1c(NCc2ccc(Cl)cc2)nc2ccc(C(=O)NO)cc2c1=O` [Compound I-165, 2-[(4-chlorobenzyl)amino]-N-hydroxy-3-methyl-4-oxo-3,4-dihydroquinazoline-6-carboxamide]: the inhibition at 0.412 µM came out at 59.5%.
As for `CS(=O)(=O)c1ccccc1OCCn1ccc2ccc(C(=O)NO)cc2c1=O` [Compound I-167, N-hydroxy-2-{2-[2-(methylsulfonyl)phenoxy]ethyl}-1-oxo-1,2-dihydroisoquinoline-7-carboxamide], the inhibition at 0.412 µM stood at 96.1%.
Same read-out and setting: under `O=C(NO)c1ccc2c(=O)[nH]c(COc3ccccc3C(F)(F)F)nc2c1` [Compound I-168, N-hydroxy-4-oxo-2-{[2-(trifluoromethyl)phenoxy]methyl}-3,4-dihydroquinazoline-7-carboxamide] stands 72.8%; under `Cn1c(=O)[nH]c2ccc(C(=O)NO)cc2c1=O` [Compound I-169, N-hydroxy-3-methyl-2,4-dioxo-1,2,3,4-tetrahydroquinazoline-6-carboxamide], 62.8%.
